# Reference: patent US20160038459A1, “COMPOSITIONS AND METHODS FOR THE TREATMENT OF NATAL AND PRE-NATAL CONDITIONS WITH ALPHA-TOCOPHEROL” (Northwestern University, priority 2014, published 2016)
# Assays:
# [1] = tested on: OVA-challenged pups from allergic mothers; experiment: OVA-induced allergic inflammation in pups from allergic mothers given D-α-tocopherol-supplemented diet
# Description: C57BL/6 female mice were maintained on chow diet. The mice were sensitized by intraperitoneal injection (200 μl) of ovalbumin (OVA) grade V (5 μg)/potassium aluminum sulfate (alum, 1 mg) or saline/alum (1 mg) on days 0 and 7 (26, 28, 46). The mice were exposed to nebulized saline or 3% (wt/vol) OVA in saline for 15 min on three consecutive days at 8, 12, and 16 wk of age. At 18 wk old, the female mice were challenged one time with 3% OVA (26, 28, 46) and then fed basal diet or diet supplemented with D-α-tocopherol (500 mg α-tocopherol/kg diet) (Table 1) (42, 52, 71). […] Ten days after starting the tocopherol-supplemented diet, females were mated with normal males. Three-day-old pups were sub-optimally sensitized by treating with only one 50-μl ip injection (rather than two injections) of 5 μg OVA/1 mg alum (26, 28, 33). At 10, 11, and 12 days old, the pups were challenged for 15 min with 3% OVA (FIG. 1A). At 13 days old, the pups were weighed and killed, and tissues were collected. Serum was collected for analysis of IgE, liver was for tocopherol analysis, lung lavage was for leukocytes and cytokines, and lung tissue was for histology, flow cytometry, and qPCR of mediators of allergic inflammation. Liver was extracted and examined for tocopherols by high-pressure liquid chromatography with electrochemical detection as we previously described (7, 50). Bronchoalveolar lavage (BAL) cells were stained and counted as previously described (3). […] Lung tissue sections were fixed in cold methanol for 15 min, rehydrated for 60 min with PBS, and stained with eosin and methyl green as we previously described (6).
# In these studies, allergic responses were induced in 6-wk-old adult female mice by sensitization with OVA/alum at weeks 0 and 1 and challenge with OVA or saline three times a week during weeks 4, 8, 12, and 18 as in the timeline in FIG. 1A. Next, the females were supplemented with D-α-tocopherol at the time of mating (FIG. 1A). The mothers were given a standard basal diet (45 mg D-α-tocopherol/kg diet) or supplemented with 150, 250, or 500 mg D-α-tocopherol/kg diets (Table 1). […] All pups from the mothers were challenged with a suboptimal regimen of OVA as previously described (46); the pups received one, instead of two, sensitizations with OVA-alum and then received three challenges with aerosolized OVA (FIG. 1A).
# [2] = tested on: bone marrow-derived DCs co-cultured with CD4+ T cells; experiment: Bone marrow-derived DCs co-cultured 48 hours with purified CD4+ T cells; assay type: cell-based; details: 48 hours co-culture (not shown)
# Description: FIGS. 17A-C show α-T and γ-T have opposing effects in regulation of DC development and function in vitro. FIGS. 17A and B show results from bone marrow from postnatal day 10 neonate (with basal diet) that was cultured with GM-CSF and with 80 μM αT (FIG. 17B) or 2 μM γT (FIG. 17A) for 8 days and analyzed for DC subsets by immunolabeling/flow cytometry. *, p<0.05 compared to DMSO group. **, p<0.05 compared to indicated group. […] Expression by qPCR. There was no effect on cell viability (not shown). n=3. **, p<0.05 compared to all other groups. *, p<0.05 compared to DMSO group.
# [3] = tested on: lung tissue cytokines and eotaxins; experiment: Pup lung cytokines, chemokines, IDO and MHCII by qPCR; BAL CCL24 by ELISA; assay type: in vivo, C57BL/6 mice
# Description: Total RNA was isolated from 50 to 100 mg lung tissue using the QIAGEN RNeasy Fibrous Tissue Mini Kit. cDNA was prepared using a SuperScript II RNase H-Reverse Transcriptase kit (Invitrogen) and analyzed by PCR on an ABI 7300 Thermal Cycler (Applied Biosystems). Taqman probes and Taqman Universal Master Mix were used as directed (Applied Biosystems). CCL24 in the BAL also was examined by ELISA (Raybiotech).
# [4] = tested on: bone marrow-derived CD11c+CD11b+ DCs; experiment: Bone marrow-derived dendritic cell culture with GM-CSF in vitro; assay type: cell-based, mice; details: 80 μM vs DMSO
# Description: For bone marrow-derived postnatal day 10 pup dendritic cell cultures, a single cell suspension of bone marrow from 10-day-old mice was placed in RPMI 1640, glutamine, HEPES, gentamycin sulfate, penicillin/streptomycin, and 10% heat-inactivated FCS. The bone marrow cells were treated with the DMSO solvent control (0.01%) or D-α-tocopherol (80 μM) as we previously described for in vitro treatment with D-α-tocopherol (7). The cells were stimulated with 5 ng granulocyte macrophage colony-stimulating factor (GM-CSF) per milliliter. The culture medium with tocopherol and GM-CSF was replaced on days 2, 4, and 7. […]
# [5] = tested on: pup lung dendritic cell subsets; experiment: Flow cytometry analysis of pup lung dendritic cell subsets; assay type: in vivo, C57BL/6 mice
# Description: (§1) Following BAL of pups, lungs were removed for analysis of dendritic cell types by flow cytometry. In the fetus, hematopoiesis occurs in the fetal livers. Gestational day 18 fetal livers were collected for analysis of fetal liver DCs. Briefly, tissues were minced and suspended in 5 ml of RPMI solution containing 1 mg/ml collagenase D (Roche) and 0.2 mg/ml DNase I (Roche) at 37° C. with agitation. After 1 h, samples were filtered through sterile 70-μm mesh tissue, centrifuged, and resuspended in 5% FBS-RPMI solution. Red blood cells were lysed in 1×BD PharmLyse Lysing Buffer (BD Biosciences), and the cells were washed two times in PBS. All centrifugation steps were carried out at 300 g for 5 min. Three million cells were used per sample for immunolabeling.
# The cells were stained for live/dead exclusion in 500 μl PBS containing 0.25 μl of Aqua fluorescent reactive dye (Molecular Probes, Invitrogen) for 20 min at room temperature in the dark. Next, FC receptors were blocked by incubating the cells in 50 μl flow cytometry staining buffer (Biolegend) with 0.75 μl purified rat anti-mouse CD16/CD32 Mouse BD FC Block (no. 553142; BD Pharmingen) for 10 min at 4° C.
# To prepare the antibodies for immunolabeling, for each sample equivalent, an antibody stock was prepared by adding the following antibodies to 50 μl of flow cytometry buffer: 1) Live/Dead Aqua fluorescent dye (no. L34957; Molecular Probes, Invitrogen), 0.25 μl/sample; 2) CD45, rat anti-mouse FITC-conjugated, 0.5 mg/ml, clone 30-F11 (no. 103107; Biolegend), 0.31 μl/sample; 3) CD11b, rat anti-mouse PE-CF594-conjugated, 0.2 mg/ml, clone M1/70 (no. 562317; BD Biosciences), 0.05 μl/sample; 4) Ly-6C, rat anti-mouse APC/Cy7-conjugated, 0.2 mg/ml, clone HK1.4 (no. 128025; Biolegend), 0.4 μl/sample; 5) CD11c, Armenian hamster anti-mouse PE/Cy7-conjugated, 0.2 mg/ml, clone N418 (no. 117317; Biolegend), 0.2 μl/sample; 6) I-A/I-E (MHCII), rat anti-mouse PerCP/Cy5.5-conjugated, 0.2 mg/ml, clone M5/114.15.2 (no. 107625; Biolegend), 0.1 μl/sample; 7) CD103, Armenian hamster anti-mouse Brilliant Violet 421-conjugated, clone 2E7 (no. 121421; Biolegend), 0.2 μl/sample; 8) CD317 (PDCA-1), rat anti-mouse APC-conjugated, 0.2 mg/ml, clone 927 (no. […]
# (§2) The cells were examined with a BD LSRII flow cytometer (BD Biosciences). […] Fluorescence Minus One staining controls were used as negative controls to identify gates for populations of interest. The following subpopulations of DCs were analyzed: 1) resident conventional DCs: CD11b+Ly6C−CD11chighMHCIIhigh; 2) CD11b+ alveolar DCs: CD11b+Ly6C−CD11c+MHCII−; 3) inflammatory DCs: CD11b+Ly6C+CD11c+MHCII+; 4) plasmacytoid DCs (pDCs): CD11b−Ly6C−CD11clowPDCA-1+MHCII−; 5) resident CD103+DCs: CD11b−Ly6C−CD11c+CD103+MHCII−; and 6) CD11b−alveolar DCs: CD11b−Ly6C−CD11c+MHCII+/−. […]
# [6] = tested on: fetal liver dendritic cell subsets; experiment: Flow cytometry analysis of gestational day 18 fetal liver dendritic cells; assay type: in vivo, C57BL/6 mice
# Description: as §1, with “immunolabeling. […]” for “immunolabeling.”
# as §2
# [7] = Liver tocopherol measurement by HPLC with electrochemical detection; assay type: in vivo, C57BL/6 mice
# Description: Diets or livers were weighed and homogenized in absolute ethanol with 5% ascorbic acid on ice. The internal standard tocol is added to each […] to determine recovery. The homogenate or plasma was extracted with an equal volume of hexane with 0.37 wt/100 wt butylated hydroxytoluene to prevent oxidation and increase recovery of tocopherol. The samples were vortexed and then centrifuged for 10 min at 9,000 g at 4° C. The hexane layer was dried under nitrogen and stored at −20° C. The samples were reconstituted in methanol, and then tocopherols were separated using a reverse-phase C18 HPLC column (Hewlett Packard) and HPLC (Waters) with 99% methanol-1% water as a mobile phase with detection with an electrochemical detector (potential 0.7 V) (Waters).
# [8] = tested on: OVA-challenged pups from allergic mothers; experiment: Maternal γ-tocopherol supplementation of allergic mothers, suboptimal OVA challenge of pups; assay type: in vivo, C57BL/6 mice; details: for numbers of IRF4+CD11b+CD11c+ dendritic cells in pup lung: OVA-challenged pups from allergic mothers; for inflammatory mediators in OVA-treated pup lungs: protein array and ELISA of minced lung culture supernatants
# Description: (§3) C57BL/6 female mice were sensitized with OVA/alum and challenged with OVA (150 μg) as in the timeline below. Then, the cages were supplied with basal diet (45 mg γ-tocopherol/kg diet) or γ-tocopherol supplemented diets (250 mg γ-tocopherol/kg diet) and males were introduced for breeding. The pups were administered a suboptimal dose of OVA/alum (i.e., one i.p. with OVA/alum and 3 challenges for 10 min with 3% OVA as previously described (Am J Respir Cell Mol Biol 2011. 44: 285 and Am J PhysiolLung Cell MolPhysiol. 2014, 15; 307:L482-96; both of which are herein incorporated by reference in their entireties).
# [9] = Tissue γ-tocopherol after maternal γ-tocopherol-supplemented diet; assay type: in vivo, C57BL/6 mice
# Description: as §3
# [10] = maternal supplementation, discussion statement
# [11] = maternal supplementation during pregnancy/lactation, first litter, PND13, qPCR
# [12] = second litter, 500 mg/kg maternal diet, OVA-challenged pups from allergic mothers
# [13] = bone marrow from 10-day-old neonates, 8 days
# [14] = PND13 OVA-challenged pups, maternal supplementation
# [15] = 250 mg γ-tocopherol/kg maternal diet
# [16] = 250 mg γ-tocopherol/kg maternal diet, listed as γT
# [17] = 250 mg γ-tocopherol/kg maternal diet, allergic mothers
smiles,measurement,setting,value
"Cc1c(C)c2c(c(C)c1O)CC[C@@](C)(CCC[C@H](C)CCC[C@H](C)CCCC(C)C)O2 [D-α-tocopherol, D-α-Tocopherol]",percent eosinophils in the BAL,"[1]; 150 mg α-tocopherol/kg maternal diet, pups PND13",partially inhibited
same,percent eosinophils in the BAL,"[1]; 250 mg α-tocopherol/kg maternal diet, pups PND13",greatest inhibition
same,development of the allergic response in cross-fostered neonates,"[1]; 250 mg/kg diet during pregnancy only, pups cross-fostered to allergic mothers with basal diet",sufficient to inhibit
same,allergic responses in cross-fostered neonates,"[1]; 250 mg/kg diet supplementation during lactation only, cross-fostered",reduced
same,percent eosinophils in the BAL,"[1]; 500 mg α-tocopherol/kg maternal diet, pups PND13",greatest inhibition
same,inhibition of BAL eosinophils in the OVA-challenged pups,"[1]; 500 mg/kg diet started at second mating, second litter of allergic mothers",> 90%
same,OVA-specific serum IgE in pups,"[1]; among the D-α-tocopherol treatment groups, ELISA",not different
same,allergic inflammation in the OVA-stimulated pups from allergic mothers,"[1]; maternal diet 150, 250 or 500 mg/kg diet vs basal 45 mg/kg, pregnancy and lactation, PND13 BAL",dose-dependent inhibition
same,eosinophils in the lung tissue of OVA-challenged pups,"[1]; maternal supplementation of allergic female mice, eosin/methyl green histology",reduced
same,allergic responses in the lung (BAL eosinophils and monocytes),"[1]; maternal supplementation, PND13 pups of the liver tocopherol/DC experiment (FIG. 9D)",blocked
same,body weight,[1]; [10],did not affect
same,lung weight,[1]; [10],did not affect
same,pup gender distribution,[1]; maternal supplemented diets,no effect
same,pup numbers,[1]; maternal supplemented diets,no effect
same,pup weight,"[1]; maternal supplemented diets, pups PND13",no effect
same,cell viability,[2]; 80 μM α-T,no effect
same,OVA-induced pup lung mRNA expression of CCL11,[3]; [11],inhibited
same,OVA-induced pup lung mRNA expression of CCL24,[3]; [11],inhibited
same,OVA-induced pup lung mRNA expression of IL-4,[3]; [11],inhibited
same,OVA-induced pup lung mRNA expression of IL-33,[3]; [11],inhibited
same,protein expression of CCL24 in BAL supernatant,"[3]; maternal supplementation during pregnancy/lactation, PND13, ELISA",inhibited
same,whole lung expression of IFNγ,[3]; [12],no effect
same,whole lung expression of IL-2,[3]; [12],no effect
same,whole lung expression of IL-10,[3]; [12],no effect
same,whole lung expression of MHCII,[3]; [12],no effect
same,whole lung expression of TNF-α,[3]; [12],no effect
same,whole lung mRNA expression of CCL11,[3]; [12],reduced
same,whole lung mRNA expression of CCL24,[3]; [12],reduced
same,whole lung mRNA expression of IL-4,[3]; [12],reduced
same,whole lung mRNA expression of IL-33,[3]; [12],reduced
same,whole lung mRNA expression of TSLP,[3]; [12],reduced
same,lung tissue expression of IDO,"[3]; second litter, 500 mg/kg maternal diet, pups from allergic mothers and saline mothers",reduced
same,percent of viable cells in the culture,[4]; 8 days (data not shown),without affecting
same,number of CD45+CD11b+CD11+DCs,[4]; [13],reduced
same,number of cells with resident DC phenotype (CD45+CD11b+CD11c+Ly6c−MHCII−DCs),[4]; [13],reduced
same,"lung tissue number of CD11c+CD11b+ subsets of DCs, including resident conventional DCs, mDCs, and CD11b+ alveolar DCs",[5]; [14],significantly reduced
same,"pup lung CD11c+CD11b− subsets of cells, including pDCs, resident CD103+DCs, CD11b− alveolar DCs, and alveolar macrophages",[5]; [14],did not alter
same,"mean fluorescence intensity for MHCII, CD80, and CD86 on CD11c+CD11b+DCs and CD11c+CD11b−DCs","[5]; pup lung, among the groups (data not shown)",not different
same,pup lung pDC-to-cDC ratio,"[5]; supplementation of allergic mothers, OVA-challenged pups, 0.3 with basal diet",0.53
same,fetal liver CD11c+CD11b− subsets,[6]; maternal supplementation (data not shown),not altered
same,"number of CD11c+CD11b+DCs in fetal livers, including phenotype of mDCs and of resident DCs",[6]; supplementation of allergic mothers,reduced
same,increase of pup liver D-α-tocopherol with maternal supplementation,[7]; PND13 pup liver,2.5 fold
Cc1c(O)cc2c(c1C)O[C@](C)(CCC[C@H](C)CCC[C@H](C)CCCC(C)C)CC2 [γ-tocopherol],cell viability,[2]; 2 μM γ-T,no effect
same,number of BAL leukocytes in OVA-challenged pups from allergic mothers,[8]; [15],increases
same,number of pups from supplemented allergic mothers,[8]; [15],fewer pups
same,pup responses to allergen challenge,"[8]; 250 mg γ-tocopherol/kg maternal diet during pregnancy/lactation, allergic mothers",elevated
same,numbers of IRF4+CD11b+CD11c+ dendritic cells in pup lung,[8]; [15],increases
same,numbers of IRF4+CD11b+CD11c+ dendritic cells in pup lung,[8]; [16],elevated numbers
same,numbers of CD11b expressing subsets of CD11c dendritic cells in pup lung,[8]; [17],increased numbers
same,numbers of pup lung eosinophils,[8]; [17],increased numbers
same,number of allergic mothers with pups,"[8]; 250 mg γ-tocopherol/kg maternal diet, percentage of mated females that had pups",reduced
same,inflammatory mediators in OVA-treated pup lungs,[8]; [15],increases
same,inflammatory mediators in OVA-treated pup lungs,[8]; [16],increased
same,tissue γ-tocopherol in mothers,[9],elevates
same,tissue γ-tocopherol in pups,[9],elevates
same,liver γ-tocopherol,[7]; all groups of the D-α-tocopherol diet experiment (data not shown),< 0.003 μg γ-tocopherol/g liver tissue
